Reference: the NIST ThermoML archive (doi:10.1016/j.jct.2019.03.023)
Where “and” joins values, the source holds several entries; their conditions need not be identical. Identical values can stand only once.

Test: molar heat capacity at constant volume
Settings: Vacuum adiabatic calorimetry

CC(C)O [propan-2-ol]
Fluid (supercritical or subcritical phases)
Settings | molar heat capacity at constant volume
506.89 K, Mass density=324.5 kg/m3 | 348.43 J/K/mol and 347.05 J/K/mol
506.89 K, Mass density=343.1 kg/m3 | 330.28 J/K/mol
506.97 K, Mass density=329.2 kg/m3 | 330.22 J/K/mol
506.98 K, Mass density=288.99 kg/m3 | 360.33 J/K/mol
506.98 K, Mass density=324.5 kg/m3 | 352.64 J/K/mol
506.98 K, Mass density=343.1 kg/m3 | 333.83 J/K/mol
507.07 K, Mass density=288.99 kg/m3 | 365.74 J/K/mol
507.07 K, Mass density=324.5 kg/m3 | 346.75 J/K/mol
507.08 K, Mass density=343.1 kg/m3 | 331.96 J/K/mol
507.11 K, Mass density=329.2 kg/m3 | 342.54 J/K/mol
507.17 K, Mass density=288.99 kg/m3 | 355.1 J/K/mol
507.17 K, Mass density=293.3 kg/m3 | 358.29 J/K/mol
507.17 K, Mass density=324.5 kg/m3 | 351.56 J/K/mol
507.17 K, Mass density=343.1 kg/m3 | 333.89 J/K/mol
507.2 K, Mass density=329.2 kg/m3 | 339.6 J/K/mol
507.26 K, Mass density=288.99 kg/m3 | 361.53 J/K/mol
507.26 K, Mass density=324.5 kg/m3 | 348.79 J/K/mol
507.26 K, Mass density=343.1 kg/m3 | 336.65 J/K/mol
507.3 K, Mass density=329.2 kg/m3 | 339.42 J/K/mol
507.35 K, Mass density=293.3 kg/m3 | 367 J/K/mol
507.35 K, Mass density=324.5 kg/m3 | 351.56 J/K/mol
507.36 K, Mass density=343.1 kg/m3 | 338.58 J/K/mol
507.4 K, Mass density=329.2 kg/m3 | 335.93 J/K/mol
507.45 K, Mass density=293.3 kg/m3 | 363.82 J/K/mol
507.45 K, Mass density=324.5 kg/m3 | 357.02 J/K/mol
507.45 K, Mass density=343.1 kg/m3 | 335.69 J/K/mol
507.5 K, Mass density=329.2 kg/m3 | 343.02 J/K/mol
507.54 K, Mass density=293.3 kg/m3 | 371.39 J/K/mol
507.54 K, Mass density=324.5 kg/m3 | 349.09 J/K/mol
507.54 K, Mass density=343.1 kg/m3 | 337.79 J/K/mol
507.59 K, Mass density=329.2 kg/m3 | 338.94 J/K/mol
507.63 K, Mass density=293.3 kg/m3 | 367.06 J/K/mol
507.63 K, Mass density=324.5 kg/m3 | 353.72 J/K/mol
507.65 K, Mass density=343.1 kg/m3 | 339.78 J/K/mol
507.69 K, Mass density=329.2 kg/m3 | 354.86 J/K/mol
507.7 K, Mass density=329.2 kg/m3 | 347.95 J/K/mol
507.73 K, Mass density=293.3 kg/m3 | 369.4 J/K/mol
507.73 K, Mass density=324.5 kg/m3 | 360.99 J/K/mol
507.82 K, Mass density=274 kg/m3 | 385.09 J/K/mol
507.82 K, Mass density=293.3 kg/m3 | 371.39 J/K/mol
507.82 K, Mass density=324.5 kg/m3 | 358.53 J/K/mol
507.82 K, Mass density=343.1 kg/m3 | 338.76 J/K/mol
507.89 K, Mass density=329.2 kg/m3 | 352.76 J/K/mol
507.91 K, Mass density=274 kg/m3 | 385.33 J/K/mol
507.91 K, Mass density=293.3 kg/m3 | 375.83 J/K/mol
507.91 K, Mass density=324.5 kg/m3 | 365.2 J/K/mol
507.91 K, Mass density=343.1 kg/m3 | 340.98 J/K/mol
507.95 K, Mass density=343.1 kg/m3 | 342.54 J/K/mol and 212.44 J/K/mol
508.01 K, Mass density=234.3 kg/m3 | 436.29 J/K/mol
508.01 K, Mass density=255.8 kg/m3 | 424.87 J/K/mol
508.01 K, Mass density=274 kg/m3 | 393.86 J/K/mol
508.01 K, Mass density=293.3 kg/m3 | 380.52 J/K/mol
508.01 K, Mass density=324.5 kg/m3 | 363.27 J/K/mol
508.01 K, Mass density=343.1 kg/m3 | 205.52 J/K/mol
508.04 K, Mass density=329.2 kg/m3 | 358.17 J/K/mol
508.1 K, Mass density=234.3 kg/m3 | 442.3 J/K/mol
508.1 K, Mass density=255.8 kg/m3 | 425.65 J/K/mol
508.1 K, Mass density=266.3 kg/m3 | 412.31 J/K/mol
508.1 K, Mass density=274 kg/m3 | 396.93 J/K/mol
508.1 K, Mass density=281.9 kg/m3 | 391.7 J/K/mol
508.1 K, Mass density=293.3 kg/m3 | 381.6 J/K/mol
508.1 K, Mass density=324.5 kg/m3 | 367.06 J/K/mol
508.1 K, Mass density=343.1 kg/m3 | 191.64 J/K/mol
508.16 K, Mass density=329.2 kg/m3 | 363.76 J/K/mol and 218.14 J/K/mol
508.18 K, Mass density=329.2 kg/m3 | 208.53 J/K/mol
508.19 K, Mass density=234.3 kg/m3 | 447.71 J/K/mol
508.19 K, Mass density=255.8 kg/m3 | 429.38 J/K/mol
508.19 K, Mass density=266.3 kg/m3 | 417.66 J/K/mol
508.19 K, Mass density=274 kg/m3 | 404.38 J/K/mol
508.19 K, Mass density=281.9 kg/m3 | 398.49 J/K/mol
508.19 K, Mass density=288.99 kg/m3 | 390.74 J/K/mol
508.19 K, Mass density=293.3 kg/m3 | 383.29 J/K/mol
508.19 K, Mass density=324.5 kg/m3 | 370.25 J/K/mol
508.19 K, Mass density=343.1 kg/m3 | 187.98 J/K/mol
508.28 K, Mass density=234.3 kg/m3 | 453.36 J/K/mol
508.28 K, Mass density=255.8 kg/m3 | 438.99 J/K/mol
508.28 K, Mass density=266.3 kg/m3 | 426.19 J/K/mol
508.28 K, Mass density=274 kg/m3 | 414.84 J/K/mol
508.28 K, Mass density=281.9 kg/m3 | 409.07 J/K/mol
508.28 K, Mass density=288.99 kg/m3 | 395.61 J/K/mol
508.28 K, Mass density=293.3 kg/m3 | 391.22 J/K/mol
508.28 K, Mass density=324.5 kg/m3 | 371.75 J/K/mol and 221.39 J/K/mol
508.28 K, Mass density=329.2 kg/m3 | 195.91 J/K/mol
508.29 K, Mass density=343.1 kg/m3 | 181.07 J/K/mol
508.34 K, Mass density=324.5 kg/m3 | 214 J/K/mol
508.37 K, Mass density=329.2 kg/m3 | 192.6 J/K/mol
508.38 K, Mass density=234.3 kg/m3 | 464.9 J/K/mol
508.38 K, Mass density=255.8 kg/m3 | 446.27 J/K/mol
508.38 K, Mass density=266.3 kg/m3 | 435.27 J/K/mol

Liquid
Settings | molar heat capacity at constant volume [J/K/mol]
507.95 K | 212.44
508.16 K | 218.14
508.28 K | 221.39
